Laboratory results from patent publication USRE45313E1, “Exendin variant peptides” (priority 1999, dated 2014).

How the values were obtained:
[1] = In vivo pharmacokinetics after i.v. administration to rabbits; conditions: iv; for half-life: New Zealand White, rabbit, in vivo, 1000 nmol/kg, iv 1000 nmol/kg, mean
Procedure: In order to establish whether this effect is sustained in vivo, the pharmacokinetic parameters of the two compounds are examined in rabbits.
Compound 4 (batch No. ZP 7.97-5-F, 4053 g/mol) and Compound (iii) (batch No. ZP 7.73-2-G, 3854 g/mol) were synthesised in-house using the Fmoc strategy. […] The peptides were dissolved in pyrogen free isotonic saline and both peptides were administered i.v. to rabbits and rats using a dose of 1000 nmol/kg.
Fifteen New Zealand White rabbits weighing 2.5 to 3.0 kg were used for the experiment. On the day of the experiment, the rabbits were anaesthetised with Hypnorm® i.m. followed by Dormicum® i.v., Catheters were inserted into the femoral vein and artery for i.v. administration of drugs and arterial blood sampling. The rabbits stayed unconscious throughout the experiment.
Blood samples were collected at t−1, 3, 5, 10, 15, 20, 30, 40, 60, 90, 120, 150, 180, and 240 min. The blood was collected in EDTA containing ice-chilled tubes and immediately centrifuged at 4 C for 5 min (20.000×g). Plasma (250 μl) was transferred to ice-chilled 0.75 ml PLC vials containing 250 μl extraction solution (MeCN: 0.18 M Ammonium Carbonate pH 9.5, 10:90 v/v). The plasma samples were stored at −20 C until SPE and LC/MS analysis.
The drug containing plasma samples (400 μl) are loaded onto OASIS™ HLB (Compound 4) or ISOLUTE™ (Compound (iii)) solid phase extraction columns preconditioned with 950 μl MeCN followed by 950 μl water. The columns are washed with 950 μl 2% TFA in water followed by an equal volume of 2% TFA in MeCN:water (20:78 v/v). The analytes are eluted with 500 μl 2% TFA in MeCN:water (60:38 v/v) and analysed by LC/MS.
The samples were kept at 18 C in the auto sampler tray prior to injection of 20 to 50 μl onto the LC column (Vydac 218MS52 (2.1×250 mm). The separations were performed at 30° C. using a flow rate of 250 μl/min and a gradient according to the table below. Both the test compound and the reference drug are detected by single ion recording (SIR) using the m/z=676.7 and the m/z=1095.2 and 821.8 ion species, respectively. All instrument conditions were controlled by MassLynx software ver. 3.3 software.
The plasma samples were analysed as described under materials and methods and the plasma concentration (Cpl) plotted versus time in a semi log diagram. The plasma concentration were followed for three hours in rabbits, whereas the limited blood volume of rats restricted the blood sampling in this specie to one hour. The Cpl vs. time curves from the individual rabbits were fitted to a two-compartment open model (figure not shown) using 1/y^2 weighted least squares in WinNonlin 3.1 (Pharsight Corp. (Mountain View, Calif.)).
Table 5: The pharmacokinetic constants were obtained from rabbits when the Cpl vs. time curves was fitted mathematically. The compounds were administered iv in a concentration of 1000 nmol/kg. T1/2 values are given in minutes (min) for the a and P phase.

in vitro = conditions: 37 C, followed for 720 min; for half-life at 10 µg/ml: Sprague-Dawley, rat, heparin-stabilised rat plasma, T½ in rat plasma; for T½ in rat plasma / kobs (degradation rate): heparin stabilised rat plasma
Procedure: The degradation of the two test compounds and in heparin stabilised rat (Sprague-Dawley) plasma was followed by the combination of solid phase extraction and LC-MS. The degradation was followed for 720 minutes in plasma.
Blank rat plasma in sodium heparin (5000 units/mL) were obtained from Harlan Sera Lab Ltd. (Loughborough, UK).
The LC-MS analysis was performed on an HP 1100 instrument consisting of an on-line degasser, a quaternary gradient pump, an auto sampler, a column oven, Hewlett Packard (Wilmington. Del., U.S.A.) in combination with a Quattro Ultima mass spectrometer from Micromass (Altrincham, UK). Both the LC and MS were controlled by MassLynx 3.3 software. The LC separations prior to MS detection were performed on a Vydac 218MS52 (2.1×250 mm) column (Hesperia, Calif., U.S.A.).
The initial plasma volume was 1000 μl (37° C.). From the initial plasma volume, 100 μl was transferred to a 0.75 ml HPLC vial (used as blank), mixed with 560 μl extraction solution (MeCN:0.18 M ammonium carbonate pH 9.5 (6:94 v/v), 4 C) and extracted by Solid Phase Extraction using ASPEC XL4 Robot. A volume of 100 μl stock solution was added to the remaining 900 μl plasma, mixed thoroughly and incubated at 37 C (corresponding to an initial concentration of 10 μg of the test compounds/ml). At each time point (0.2, 60, 120, 180, 240, 360, 480, 662 and 720 min., respectively) 100 μl of the drug containing plasma was collected, mixed with 560 μl ice cold extraction solution and immediately extracted by SPE as described above. The extracted plasma samples were analysed by LC-MS.
The samples were kept at 18° C. in the autosampler tray prior to injection of 10 μl. The separations were performed at 30° C. on a Vydac 218MS52 (2.1×250 mm) LC column using a linear gradient from 15 to 50% B within 14 min. at a flow rate of 250 μl/min 0.1% formic acid in water was used as mobile phase A and 0.1% formic acid in MeCN as mobile phase B. Compound 4 and Compound (iii) were detected by single ion recording (SIR) using the 6 H+(m/z=676.7) and 4 H+(m/z=822.1) ion species, respectively. The cone voltage for the analysis of compound (iii) and Compound 4 was set to 100 and 70 V respectively. […] The degradation of the two compounds were followed for 720 min and the results were plotted as the natural logarithm of the peak area vs. time.

Row | Compound | half-life ([1]; T1/2, α) [min] | half-life ([1]; T1/2, β) [min] | T½ value relative to the unconjugated peptide ([1]; Table 5) | half-life at 10 µg/ml (in vitro) [min] | T½ in rat plasma (in vitro) [min] | kobs (degradation rate) (in vitro) [min⁻¹]
1 | CC[C@H](C)[C@H](NC(=O)[C@H](Cc1ccccc1)NC(=O)[C@H](CCC(=O)O)NC(=O)[C@H](CCCCN)NC(=O)[C@H](C)NC(=O)[C@H](C)NC(=O)[C@H](CCC(N)=O)NC(=O)CNC(=O)[C@H](CCC(=O)O)NC(=O)[C@H](CC(C)C)NC(=O)[C@H](Cc1ccc(O)cc1)NC(=O)[C@H](CO)NC(=O)[C@H](CO)NC(=O)[C@@H](NC(=O)[C@H](CC(=O)O)NC(=O)[C@H](CO)NC(=O)[C@@H](NC(=O)[C@H](Cc1ccccc1)NC(=O)[C@@H](NC(=O)CNC(=O)[C@H](CCC(=O)O)NC(=O)CNC(=O)[C@@H](N)Cc1c[nH]cn1)[C@@H](C)O)[C@@H](C)O)C(C)C)C(=O)N[C@@H](C)C(=O)N[C@@H](Cc1c[nH]c2ccccc12)C(=O)N[C@@H](CC(C)C)C(=O)N[C@H](C(=O)N[C@@H](CCCCN)C(=O)NCC(=O)N[C@@H](CCCNC(=N)N)C(=O)N[C@@H](CCCCN)C(=O)N[C@@H](CCCCN)C(=O)N[C@@H](CCCCN)C(=O)N[C@@H](CCCCN)C(=O)N[C@@H](CCCCN)C(=O)N[C@@H](CCCCN)C(N)=O)C(C)C [Compound 4] | 6.8 | 28 | approximately three times | 466 | 466.1 | 0.0015
2 | CC[C@H](C)[C@H](NC(=O)[C@H](Cc1ccccc1)NC(=O)[C@H](CCC(=O)O)NC(=O)[C@H](CCCCN)NC(=O)[C@H](C)NC(=O)[C@H](C)NC(=O)[C@H](CCC(N)=O)NC(=O)CNC(=O)[C@H](CCC(=O)O)NC(=O)[C@H](CC(C)C)NC(=O)[C@H](Cc1ccc(O)cc1)NC(=O)[C@H](CO)NC(=O)[C@H](CO)NC(=O)[C@@H](NC(=O)[C@H](CC(=O)O)NC(=O)[C@H](CO)NC(=O)[C@@H](NC(=O)[C@H](Cc1ccccc1)NC(=O)[C@@H](NC(=O)CNC(=O)[C@H](CCC(=O)O)NC(=O)CNC(=O)[C@@H](N)Cc1cnc[nH]1)[C@@H](C)O)[C@@H](C)O)C(C)C)C(=O)N[C@@H](C)C(=O)N[C@@H](Cc1c[nH]c2ccccc12)C(=O)N[C@@H](CC(C)C)C(=O)N[C@H](C(=O)N[C@@H](CCCCN)C(=O)NCC(=O)N[C@@H](CCCNC(=N)N)C(N)=O)C(C)C [Compound (iii), reference compound] | 2.3 | 10.8 | – | 238 | 238.4 | 0.0029
